Structures are written as SMILES. Where a name gives a salt, the structure may show the parent alone.

For the experiment, the system named is relapsed AML cells. Put plainly: Drug sensitivity assay, 1,536-well, 3-day culture with individual approved drugs at 10 μM, viability by alamarBlue. The experiment is classed as cell-based, human. The conditions noted are these: number of relapsed AML cases out of 18 tested with >70% cell death; 10 μM, 3-day culture. The essentials:
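FACS-sorted viable myeloid blasts from thawed AML samples, 4,000-4,500 cells per 5 μL well, cultured in IMDM with 15% BIT, SCF, FLT3L, IL-3, G-CSF. Drugs added per well; after three days percentage of live cells measured to gauge killing.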
Take `CCCC(=O)O[C@]1(C(=O)COC(C)=O)CC[C@H]2[C@@H]3C[C@H](F)C4=CC(=O)C=C[C@]4(C)[C@@]3(F)[C@@H](O)C[C@@]21C` [DIFLUPREDNATE]: the “#Cases >70% cell death” value was determined as 1.

For the compound `C[C@H]1O[C@@H](O[C@H]2[C@@H](O)C[C@H](O[C@H]3[C@@H](O)C[C@H](O[C@H]4CC[C@@]5(C)[C@H](CC[C@@H]6[C@@H]5CC[C@]5(C)[C@@H](C7=CC(=O)OC7)CC[C@]65O)C4)O[C@@H]3C)O[C@@H]2C)C[C@H](O)[C@@H]1O` [DIGITOXIN], the “#Cases >70% cell death” value is reported as 18.

For `C[C@]12CC[C@H](O)C[C@H]1CC[C@@H]1[C@@H]2C[C@@H](O)[C@]2(C)[C@@H](C3=CC(=O)OC3)CC[C@]12O` [DIGOXIGENIN], the “#Cases >70% cell death” value is 18.

On to `C[C@H]1O[C@@H](O[C@H]2[C@@H](O)C[C@H](O[C@H]3[C@@H](O)C[C@H](O[C@H]4CC[C@@]5(C)[C@H](CC[C@@H]6[C@@H]5C[C@@H](O)[C@]5(C)[C@@H](C7=CC(=O)OC7)CC[C@]65O)C4)O[C@@H]3C)O[C@@H]2C)C[C@H](O)[C@@H]1O` [DIGOXIN], for which the “#Cases >70% cell death” value worked out at 18.

As for `CN1C[C@H](C(=O)N[C@]2(C)O[C@@]3(O)[C@@H]4CCCN4C(=O)[C@H](Cc4ccccc4)N3C2=O)C[C@@H]2c3cccc4[nH]cc(c34)C[C@H]21` [DIHYDROERGOTAMINE MESYLATE], the “#Cases >70% cell death” value amounted to 1.

Regarding `COc1cc(C(=O)OCCCN2CCCN(CCCOC(=O)c3cc(OC)c(OC)c(OC)c3)CC2)cc(OC)c1OC` [DILAZEP DIHYDROCHLORIDE], the “#Cases >70% cell death” value was 2.

Take `O=S(=O)([O-])CCSSCCS(=O)(=O)[O-].[Na+].[Na+]` [DIMESNA]: the “#Cases >70% cell death” value is 1.

As for `OCCN(CCO)c1nc(N2CCCCC2)c2nc(N(CCO)CCO)nc(N3CCCCC3)c2n1` [DIPYRIDAMOLE], the “#Cases >70% cell death” value is recorded as 2.

As for `CC(=O)O[C@@]12CO[C@@H]1C[C@H](O)[C@@]1(C)C(=O)[C@H](O)C3=C(C)[C@@H](OC(=O)[C@H](O)[C@@H](NC(=O)OC(C)(C)C)c4ccccc4)C[C@@](O)([C@@H](OC(=O)c4ccccc4)[C@H]21)C3(C)C` [DOCETAXEL], the “#Cases >70% cell death” value is on record as 5.

On to `CCCCCCCCCCCC[N+](C)(C)CCOc1ccccc1` [DOMIPHEN BROMIDE], for which the “#Cases >70% cell death” value is 16.

Regarding `CO[C@H]1C[C@H](O[C@H]2[C@H](C)O[C@@H](O[C@@H]3/C(C)=C/C[C@@H]4C[C@@H](C[C@]5(C=C[C@H](C)[C@@H](C6CCCCC6)O5)O4)OC(=O)[C@@H]4C=C(C)[C@@H](O)[C@H]5OC/C(=C\C=C\[C@@H]3C)[C@]54O)C[C@@H]2OC)O[C@@H](C)[C@@H]1O` [DORAMECTIN], the “#Cases >70% cell death” value is 18.

`CCN[C@H]1C[C@H](C)S(=O)(=O)c2sc(S(N)(=O)=O)cc21` [DORZOLAMIDE]: the “#Cases >70% cell death” value stood at 4.

As for `Cn1c(=O)c2c(ncn2CC2OCCO2)n(C)c1=O` [DOXOFYLLINE], the “#Cases >70% cell death” value is 1.

Consider `COc1cccc2c1C(=O)c1c(O)c3c(c(O)c1C2=O)C[C@@](O)(C(=O)CO)C[C@@H]3O[C@H]1C[C@H](N)[C@H](O)[C@H](C)O1` [DOXORUBICIN], for which the “#Cases >70% cell death” value was 18.

Regarding `CCCCc1oc2ccc(NS(C)(=O)=O)cc2c1C(=O)c1ccc(OCCCN(CCCC)CCCC)cc1` [DRONEDARONE], the “#Cases >70% cell death” value came out at 12.

With `O=C(CCCN1CC=C(n2c(=O)[nH]c3ccccc32)CC1)c1ccc(F)cc1` [DROPERIDOL], the “#Cases >70% cell death” value was 2.

In the case of `CC(=O)[C@H]1CC[C@H]2[C@@H]3C=CC4=CC(=O)CC[C@@]4(C)[C@@H]3CC[C@]12C` [DYDROGESTERONE], the “#Cases >70% cell death” value is on record as 1.

As to `OC(CN1CCC(Cc2ccc(F)cc2)CC1)c1ccc(Cl)cc1` (stereo not shown) [ELIPRODIL], the “#Cases >70% cell death” value is 1.

As for `CC[C@H]1CN2CCc3cc(OC)c(OC)cc3[C@@H]2C[C@@H]1C[C@H]1NCCc2cc(OC)c(OC)cc21` [EMETINE], the “#Cases >70% cell death” value turned out to be 18.

Turning to `COc1cccc2c1C(=O)c1c(O)c3c(c(O)c1C2=O)C[C@@](O)(C(=O)CO)C[C@@H]3O[C@H]1C[C@H](N)[C@@H](O)[C@H](C)O1` [EPIRUBICIN], the “#Cases >70% cell death” value is given as 18.

For the compound `C#Cc1cccc(Nc2ncnc3cc(OCCOC)c(OCCOC)cc23)c1` [ERLOTINIB], the “#Cases >70% cell death” value is recorded as 6.

Take `C[C@]12CC[C@@H]3c4ccc(O)cc4CC[C@H]3[C@@H]1CC[C@@H]2OC(=O)CCC1CCCC1` [ESTRADIOL CYPIONATE]: the “#Cases >70% cell death” value is 2.

Regarding `C[C@]12CC[C@@H]3c4ccc(OS(=O)(=O)O)cc4CC[C@H]3[C@@H]1CCC2=O` [ESTROPIPATE], the “#Cases >70% cell death” value amounted to 1.

Consider `CCOc1ccc2nc3cc(N)ccc3c(N)c2c1` [ETHACRIDINE LACTATE], for which the “#Cases >70% cell death” value is listed as 2.

As for `C#C[C@]1(O)CC[C@H]2[C@@H]3CCc4cc(O)ccc4[C@H]3CC[C@@]21C` [ETHINYL ESTRADIOL], the “#Cases >70% cell death” value was determined as 1.

Regarding `CCOc1ccc2nc(S(N)(=O)=O)sc2c1` [ETHOXZOLAMIDE], the “#Cases >70% cell death” value came out at 2.

Take `CCc1cc(Cl)c(OC)c(C(=O)NC[C@@H]2CCCN2CC)c1O` [ETICLOPRIDE HYDROCHLORIDE]: the “#Cases >70% cell death” value worked out at 1.

Regarding `CCNC1=Nc2ccc(Cl)cc2C(C)(c2ccccc2)O1` (stereo not shown) [ETIFOXINE], the “#Cases >70% cell death” value stood at 4.

For the compound `COc1cc([C@@H]2c3cc4c(cc3[C@@H](O[C@@H]3O[C@@H]5CO[C@@H](C)O[C@H]5[C@H](O)[C@H]3O)[C@H]3COC(=O)[C@H]23)OCO4)cc(OC)c1O` [ETOPOSIDE], the “#Cases >70% cell death” value was 5.

For the compound `Cc1cc(C#N)cc(C)c1Oc1nc(Nc2ccc(C#N)cc2)nc(N)c1Br` [ETRAVIRINE], the “#Cases >70% cell death” value is 1.

Turning to `CCOC(=O)/C=C(C)/C=C/C=C(C)/C=C/c1c(C)cc(OC)c(C)c1C` [ETRETINATE], the “#Cases >70% cell death” value was determined as 1.

`COC(=O)Nc1nc2ccc(Sc3ccccc3)cc2[nH]1` [FENBENDAZOLE]: the “#Cases >70% cell death” value was 5.

`CC(NCCC(c1ccccc1)c1ccccc1)c1ccccc1` (stereo not shown) [FENDILINE HYDROCHLORIDE]: the “#Cases >70% cell death” value was 1.

`CC(C)OC(=O)C(C)(C)Oc1ccc(C(=O)c2ccc(Cl)cc2)cc1` [FENOFIBRATE]: the “#Cases >70% cell death” value is on record as 3.

Take `CC1=C(/C=C/C(C)=C/C=C/C(C)=C/C(=O)Nc2ccc(O)cc2)C(C)(C)CCC1` [FENRETINIDE]: the “#Cases >70% cell death” value is given as 9.

For the compound `O=C1NCC2(CCN(CCc3ccccc3)CC2)O1` [FENSPIRIDE], the “#Cases >70% cell death” value amounted to 3.

`O=c1[nH]c(=O)n([C@H]2C[C@H](O)[C@@H](CO)O2)cc1F` [FLOXURIDINE]: the “#Cases >70% cell death” value was 8.

For `COC(=O)Nc1nc2cc(C(=O)c3ccc(F)cc3)ccc2[nH]1` [FLUBENDAZOLE], the “#Cases >70% cell death” value is 2.

In the case of `OC(Cn1cncn1)(Cn1cncn1)c1ccc(F)cc1F` [FLUCONAZOLE], the “#Cases >70% cell death” value is given as 1.

Consider `Nc1nc(F)nc2c1ncn2[C@@H]1O[C@H](COP(=O)(O)O)[C@@H](O)[C@@H]1O` [FLUDARABINE PHOSPHATE], for which the “#Cases >70% cell death” value came to 4.

As for `Nc1nc(F)nc2c1ncn2[C@@H]1O[C@H](CO)[C@@H](O)[C@@H]1O` [FLUDARABINE], the “#Cases >70% cell death” value stood at 16.

Take `Fc1ccc(C(c2ccc(F)cc2)N2CCN(C/C=C/c3ccccc3)CC2)cc1` [FLUNARIZINE]: the “#Cases >70% cell death” value was 3.

Regarding `CC(=O)OCC(=O)[C@@]12OC(C)(C)O[C@@H]1C[C@H]1[C@@H]3C[C@H](F)C4=CC(=O)C=C[C@]4(C)[C@@]3(F)[C@@H](O)C[C@@]12C` [FLUOCINONIDE], the “#Cases >70% cell death” value is 1.

The record behind these values is patent US20210405025A1, “IDENTIFYING COMPOUNDS FOR TREATING CANCER AND USE THEREOF” (THE UAB RESEARCH FOUNDATION, priority 2018, published 2021).
